Literature values, collected in patent US8177778B2, “System and method for stabilizing corneal tissue after treatment” (Avedro, Inc., priority 2009, dated 2012).

Tested on: corneal wound healing
Details: rabbits after excimer laser PRK ablation, M6P drop vs control drop

O=C[C@@H](O)[C@@H](O)[C@H](O)[C@H](O)COP(=O)(O)O [M6P, Mannose 6-phosphate]
subepithelial collagen: less subepithelial collagen
corneal haze (at 4 weeks): significant reduction in corneal haze
